Measurements as given in ChEMBL document CHEMBL1201862, “PubChem BioAssay data set” (2004).
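48-hour exposure; five concentrations; linearly interpolated endpoints. At the GI50, growth is halved.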 Active and inactive are the calls of the source. No stated cut-off is given here; in the data, active = GI50 up to about 1.1 µM and inactive = higher.

Tests used:
Assay in all cases: NCI-60 cell line screen, 48 h
CAKI-1 = tested on: CAKI-1
A549 = tested on: A549
MDA-N = tested on: MDA-N
NCI-H460 = tested on: NCI-H460
SR = tested on: SR
OVCAR-3 = tested on: OVCAR-3
BT-549 = tested on: BT-549
SF-295 = tested on: SF-295
A498 = tested on: A498
LOX IMVI = tested on: LOX IMVI
M14 = tested on: M14
SN12C = tested on: SN12C
K562 = tested on: K562
HOP-92 = tested on: HOP-92
HCC 2998 = tested on: HCC 2998
MDA-MB-231 = tested on: MDA-MB-231
PC-3 = tested on: PC-3
HOP-62 = tested on: HOP-62
SW-620 = tested on: SW-620
HCT-116 = tested on: HCT-116
HT-29 = tested on: HT-29
NCI-H522 = tested on: NCI-H522
DU-145 = tested on: DU-145
Malme-3M = tested on: Malme-3M
OVCAR-4 = tested on: OVCAR-4
786-0 = tested on: 786-0
SF-539 = tested on: SF-539
MDA-MB-435 = tested on: MDA-MB-435
MCF7 = tested on: MCF7
UACC-62 = tested on: UACC-62
NCI/ADR-RES = tested on: NCI/ADR-RES
T47D = tested on: T47D
U-251 = tested on: U-251
OVCAR-5 = tested on: OVCAR-5
SF-268 = tested on: SF-268
MOLT-4 = tested on: MOLT-4
CCRF-CEM = tested on: CCRF-CEM
COLO 205 = tested on: COLO 205
UACC-257 = tested on: UACC-257
KM12 = tested on: KM12
TK-10 = tested on: TK-10
RPMI-8226 = tested on: RPMI-8226
UO-31 = tested on: UO-31
SK-MEL-28 = tested on: SK-MEL-28
NCI-H23 = tested on: NCI-H23
ACHN = tested on: ACHN
SK-OV-3 = tested on: SK-OV-3
SK-MEL-5 = tested on: SK-MEL-5
EKVX = tested on: EKVX
IGROV-1 = tested on: IGROV-1
Hs-578T = tested on: Hs-578T
HCT-15 = tested on: HCT-15
OVCAR-8 = tested on: OVCAR-8
SNB-19 = tested on: SNB-19
SNB-75 = tested on: SNB-75

OC(Cc1ccc2ccccc2n1)(C(F)(F)F)C(F)(F)F was tested, and the GI50 (CAKI-1) was > 10 µM (inactive), the GI50 (A549) was > 10 µM (inactive) and the GI50 (MDA-N) was > 10 µM (inactive). The GI50 (NCI-H460) was > 10 µM (inactive), the GI50 (SR) was > 10 µM (inactive) and the GI50 (OVCAR-3) was > 10 µM (inactive). For the same compound, the GI50 (BT-549) was > 10 µM (inactive), the GI50 (SF-295) was > 10 µM (inactive) and the GI50 (A498) was > 10 µM (inactive). The GI50 (LOX IMVI) was > 10 µM (inactive), the GI50 (M14) was > 10 µM (inactive) and the GI50 (SN12C) was > 10 µM (inactive). The GI50 (K562) was > 10 µM (inactive), the GI50 (HOP-92) was > 10 µM (inactive) and the GI50 (HCC 2998) was > 10 µM (inactive). The GI50 (MDA-MB-231) was > 10 µM (inactive), the GI50 (PC-3) was > 10 µM (inactive) and the GI50 (HOP-62) was > 10 µM (inactive). The GI50 (SW-620) was > 10 µM (inactive), the GI50 (HCT-116) was > 10 µM (inactive) and the GI50 (HT-29) was > 10 µM (inactive). The GI50 (NCI-H522) was > 10 µM (inactive), the GI50 (DU-145) was > 10 µM (inactive) and the GI50 (Malme-3M) was > 10 µM (inactive). The GI50 (OVCAR-4) was > 10 µM (inactive), the GI50 (786-0) was > 10 µM (inactive) and the GI50 (SF-539) was > 10 µM (inactive). For the same compound, the GI50 (MDA-MB-435) was > 10 µM (inactive), the GI50 (MCF7) was > 10 µM (inactive) and the GI50 (UACC-62) was > 10 µM (inactive). For the same compound, the GI50 (NCI/ADR-RES) was > 10 µM (inactive), the GI50 (T47D) was > 10 µM (inactive) and the GI50 (U-251) was > 10 µM (inactive). The GI50 (OVCAR-5) was > 10 µM (inactive), the GI50 (SF-268) was > 10 µM (inactive) and the GI50 (MOLT-4) was > 10 µM (inactive). For the same compound, the GI50 (CCRF-CEM) was > 10 µM (inactive), the GI50 (COLO 205) was > 10 µM (inactive) and the GI50 (UACC-257) was > 10 µM (inactive). For the same compound, the GI50 (KM12) was > 10 µM (inactive), the GI50 (TK-10) was > 10 µM (inactive) and the GI50 (RPMI-8226) was > 10 µM (inactive). The GI50 (UO-31) was > 10 µM (inactive), the GI50 (SK-MEL-28) was > 10 µM (inactive) and the GI50 (NCI-H23) was > 10 µM (inactive). For the same compound, the GI50 (ACHN) was > 10 µM (inactive), the GI50 (SK-OV-3) was > 10 µM (inactive) and the GI50 (SK-MEL-5) was > 10 µM (inactive). The GI50 (EKVX) was > 10 µM (inactive), the GI50 (IGROV-1) was > 10 µM (inactive) and the GI50 (Hs-578T) was > 10 µM (inactive). The GI50 (HCT-15) was > 10 µM, the GI50 (OVCAR-8) was > 10 µM (inactive) and the GI50 (SNB-19) was > 10 µM (inactive). For the same compound, the GI50 (SNB-75) was > 10 µM (inactive).
